Experimental data taken from ChEMBL document CHEMBL5316293, “Novel Small-Molecule PD-L1 Inhibitor Induces PD-L1 Internalization and Optimizes the Immune Microenvironment” (J Med Chem, 2023).
The source made the active and inactive calls. No cut-off for these calls is given here.

How the values were obtained:
[1] = Antitumor activity against humanized mouse LLC-hPD-L1 cells implanted in hPD-1 knockin C57BL/6 mouse assessed as tumor growth inhibition at 25 mg/kg, ip administered for 12 days starting from day 7 post tumor implantation and measured every 2 days relative to control; assay type: functional; conditions: LLC-hPD-L1, 288 h, time 12 day, read-out: TGI
LLC-hPD-L1 [2] = test: Antitumor activity against humanized mouse LLC-hPD-L1 cells implanted in hPD-1 knockin C57BL/6 mouse assessed as reduction in Treg cells at 10 to 25 mg/kg, ip administered for 12 days starting from day 7 post tumor implantation by flow cytometry analysis; assay type: functional, organism-based; conditions: dose 10-25 mg/kg, time 12.0 day
MC38-hPD-L1 [3] = test: Antitumor activity against humanized mouse MC38-hPD-L1 cells implanted in hPD-1 knockin C57BL/6 mouse assessed as increase in GzmB level at 10 to 25 mg/kg, ip administered for 12 days starting from day 7 post tumor implantation by flow cytometry analysis; assay type: functional, organism-based; conditions: dose 10-25 mg/kg, time 12.0 day
Homo sapiens [4] = organism: Homo sapiens; test: Internalization of PD-L1 in cytoplasm of human RKO cells assessed as decrease in PD-L1 concentration in cell membrane at 1 micromol/L incubated for 6 hrs by fluorescence microscopy; assay type: functional, cell-based; conditions: dose 1.0 µmol/L
MC38-hPD-L1 [5] = test: Antitumor activity against humanized mouse MC38-hPD-L1 cells implanted in hPD-1 knockin C57BL/6 mouse assessed as macrophage polarization into M1 phenotype at 25 mg/kg, ip administered for 12 days starting from day 7 post tumor implantation by flow cytometry analysis; assay type: functional, organism-based; conditions: time 12.0 day
[6] = Toxicity in ICR mouse assessed as reduction in spleen weight at 500 to 5000 mg/kg, po administered via gavage for 2 weeks; assay type: organism-based; conditions: in vivo, 336 h, dose 500-5000 mg/kg
[7] = Toxicity in hPD-1 knockin C57BL/6 mouse implanted with humanized mouse MC38-hPD-L1 cells assessed as reduction in body weight at 10 to 25 mg/kg, ip administered for 12 days starting from day 7 post tumor implantation and measured every 3 to 4 days; assay type: organism-based; conditions: in vivo, 288 h, dose 10-25 mg/kg, time 12 day
[8] = Toxicity in ICR mouse assessed as body weight loss at 500 to 5000 mg/kg, po administered via gavage for 2 weeks; assay type: organism-based; conditions: in vivo, 336 h, dose 500-5000 mg/kg
[9] = AUC (0 to infinity) in ICR mouse at 5 mg/kg, iv; assay type: ADME, organism-based; design: dose 5 mg/kg, route iv; conditions: in vivo
[10] = biological target: Programmed cell death 1 ligand 1 (Homo sapiens, UniProt Q9NZQ7); test: Binding affinity to human PD-L1 assessed as dissociation constant by MST analysis
NCI-H460 = test: Cytotoxicity against human NCI-H460 cells cocultured with human PBMC cells assessed as increase in clearance of tumor cells at 100 to 200 nM preincubated for 30 mins followed by NCI-H460 cells addition and further coincubated for 24 hrs with human PBMC cells by cell impedence assay; assay type: functional, cell-based; conditions: dose 100-200 nM, time 24.5 hrs
LLC-hPD-L1 [11] = test: Antitumor activity against humanized mouse LLC-hPD-L1 cells implanted in hPD-1 knockin C57BL/6 mouse assessed as increase in tumor cell apoptosis by measuring increase in cleaved caspase-3 level administered intraperitoneally for 12 days starting from day 7 post tumor implantation by immunohistochemistry analysis; assay type: functional, cell-based; conditions: dose 10-25 mg/kg, route ip, time 12.0 day
A549 = test: Cytotoxicity against human A549 cells assessed as reduction in tumor proliferation at 10 to 20 uM incubated for 48 hrs by xCELLigence RTCA system analysis; assay type: functional, cell-based; conditions: dose 10-20 µM
[12] = Toxicity in ICR mouse assessed as reduction in lungs weight at 500 to 5000 mg/kg, po administered via gavage for 2 weeks; assay type: organism-based; conditions: in vivo, 336 h, dose 500-5000 mg/kg
MC38-hPD-L1 [13] = test: Antitumor activity against humanized mouse MC38-hPD-L1 cells implanted in hPD-1 knockin C57BL/6 mouse assessed as tumor growth inhibition at 25 mg/kg, ip administered for 12 days starting from day 7 post tumor implantation and measured every 2 days relative to control; assay type: functional; conditions: MC38-hPD-L1, 288 h, time 12 day, read-out: TGI
[14] = Toxicity in ICR mouse assessed as acute side effects at 500 to 5000 mg/kg, po administered via gavage for 2 weeks; assay type: organism-based; conditions: in vivo, 336 h, dose 500-5000 mg/kg
LLC-hPD-L1 [15] = test: Antitumor activity against humanized mouse LLC-hPD-L1 cells implanted in hPD-1 knockin C57BL/6 mouse assessed as macrophage polarization into M1 phenotype at 25 mg/kg, ip administered for 12 days starting from day 7 post tumor implantation by flow cytometry analysis; assay type: functional, organism-based; conditions: time 12.0 day
LLC-hPD-L1 [16] = test: Antitumor activity against humanized mouse LLC-hPD-L1 cells implanted in hPD-1 knockin C57BL/6 mouse assessed as reduction in MDSC cells at 10 to 25 mg/kg, ip administered for 12 days starting from day 7 post tumor implantation by flow cytometry analysis; assay type: functional, organism-based; conditions: dose 10-25 mg/kg, time 12.0 day
[17] = biological target: Programmed cell death protein 1/Programmed cell death 1 ligand 1 (Homo sapiens) (UniProt Q15116+Q9NZQ7); test: Inhibition of PD-1/PD-L1 interaction in human A549 cells harboring low level PD-L1 expression assessed as increase in transcriptional-mediated bioluminescent signal preincubated with compound followed by washout and further cultured with Jurkat cells transfected with NFAT luciferase by bio-glo reagent based assay; assay type: cell-based; conditions: dose 50-200 nM
Homo sapiens [18] = organism: Homo sapiens; test: Internalization of PD-L1 in cytoplasm of human RKO cells assessed as increase in PD-L1 concentration in cytoplasm at 1 micromol/L incubated for 6 hrs by fluorescence microscopy; assay type: functional, cell-based; conditions: dose 1.0 µmol/L
MC38-hPD-L1 [19] = test: Antitumor activity against humanized mouse MC38-hPD-L1 cells implanted in hPD-1 knockin C57BL/6 mouse assessed as tumor growth inhibition at 10 mg/kg, ip administered for 12 days starting from day 7 post tumor implantation and measured every 2 days relative to control; assay type: functional; conditions: MC38-hPD-L1, 288 h, time 12 day, read-out: TGI
[20] = Toxicity in hPD-1 knockin C57BL/6 mouse implanted with humanized mouse LLC-hPD-L1 cells assessed as reduction in body weight at 10 to 25 mg/kg, ip administered for 12 days starting from day 7 post tumor implantation and measured every 3 to 4 days; assay type: organism-based; conditions: in vivo, 288 h, dose 10-25 mg/kg, time 12 day
[21] = Half life in ICR mouse at 5 mg/kg, iv; assay type: ADME, organism-based; conditions: in vivo
Homo sapiens [22] = organism: Homo sapiens; test: Internalization of PD-L1 in cytoplasm of human RKO cells transfected with DsRed and human calreticulin assessed as colocalization of PD-L1 with endoplasmic reticulum-resident calreticulin at 1 micromol/L incubated for 12 hrs by fluorescence microscopy; assay type: functional, cell-based; conditions: dose 1.0 µmol/L
[23] = biological target: Programmed cell death protein 1/Programmed cell death 1 ligand 1 (Homo sapiens, UniProt Q9NZQ7); test: Inhibition of europium-labeled PD-1/biotinylated PD-L1 interaction (unknown origin) preincubated for 15 mins with PD-L1 followed by PD-1 addition and measured after 90 mins by TR-FRET assay; assay type: protein-complex assay
[24] = Toxicity in ICR mouse assessed as reduction in kidney weight at 500 to 5000 mg/kg, po administered via gavage for 2 weeks; assay type: organism-based; conditions: in vivo, 336 h, dose 500-5000 mg/kg
LLC-hPD-L1 [25] = test: Antitumor activity against humanized mouse LLC-hPD-L1 cells implanted in hPD-1 knockin C57BL/6 mouse assessed as increase in GzmB level at 10 to 25 mg/kg, ip administered for 12 days starting from day 7 post tumor implantation by flow cytometry analysis; assay type: functional, organism-based; conditions: dose 10-25 mg/kg, time 12.0 day
LLC-hPD-L1 [26] = test: Antitumor activity against humanized mouse LLC-hPD-L1 cells implanted in hPD-1 knockin C57BL/6 mouse assessed as increase in M1 macrophages at 10 to 25 mg/kg, ip administered for 12 days starting from day 7 post tumor implantation by flow cytometry analysis; assay type: functional, organism-based; conditions: dose 10-25 mg/kg, time 12.0 day

Chain of Programmed cell death 1 ligand 1 (Q9NZQ7 whole entry): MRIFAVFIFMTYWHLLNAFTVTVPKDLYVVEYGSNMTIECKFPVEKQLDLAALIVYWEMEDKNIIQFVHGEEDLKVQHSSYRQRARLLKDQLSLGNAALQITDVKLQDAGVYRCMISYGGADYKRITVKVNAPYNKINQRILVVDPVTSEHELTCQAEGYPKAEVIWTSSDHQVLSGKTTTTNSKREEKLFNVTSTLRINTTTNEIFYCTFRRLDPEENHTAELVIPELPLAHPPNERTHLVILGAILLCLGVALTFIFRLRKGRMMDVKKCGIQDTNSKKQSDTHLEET
Chain of Programmed cell death protein 1/Programmed cell death 1 ligand 1 (Q15116 whole entry): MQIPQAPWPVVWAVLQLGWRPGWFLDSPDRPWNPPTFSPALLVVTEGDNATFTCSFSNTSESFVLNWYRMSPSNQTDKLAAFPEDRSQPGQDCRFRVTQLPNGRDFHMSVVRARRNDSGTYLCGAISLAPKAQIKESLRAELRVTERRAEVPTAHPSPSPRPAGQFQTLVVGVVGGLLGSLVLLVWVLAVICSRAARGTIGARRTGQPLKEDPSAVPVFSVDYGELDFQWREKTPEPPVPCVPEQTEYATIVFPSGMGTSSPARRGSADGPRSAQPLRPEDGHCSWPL
Chain of Programmed cell death protein 1/Programmed cell death 1 ligand 1 (Q9NZQ7 whole entry): as the sequence (Q9NZQ7 whole entry) above

## COc1cc2c(cc1CN[C@@H](CO)C(=O)O)C(=O)N(c1cccc(-c3ccccc3)c1C)C2=O
[1]
  inhibition in vivo at 25 mg/kg: 81.4%
LLC-hPD-L1 [2]
  Activity: Active
MC38-hPD-L1 [3]
  Activity: Active
Homo sapiens [4]
  Activity: Active
MC38-hPD-L1 [5]
  Activity: Active
[6]
  Activity: Non-Toxic
[7]
  Activity: Non-Toxic
[8]
  Activity: Non-Toxic
[9]
  AUC(0-inf): 3570 ng·h/mL
[10]
  Kd: 71.4 nM
NCI-H460
  Activity: Active
LLC-hPD-L1 [11]
  Activity: Dose-Dependent Effect
A549
  Activity: inactive
[12]
  Activity: Non-Toxic
MC38-hPD-L1 [13]
  inhibition in vivo at 25 mg/kg: 88.8%
[14]
  Activity: Non-Toxic
LLC-hPD-L1 [15]
  Activity: Active
LLC-hPD-L1 [16]
  Activity: Active
[17]
  inhibition: Dose-Dependent Effect
Homo sapiens [18]
  Activity: Active
MC38-hPD-L1 [19]
  inhibition in vivo at 10 mg/kg: 65.9%
[20]
  Activity: Non-Toxic
[21]
  half-life: 9.78 h
Homo sapiens [22]
  Activity: Active
[23]
  IC50: 6.1 nM
[24]
  Activity: Non-Toxic
LLC-hPD-L1 [25]
  Activity: Active
LLC-hPD-L1 [26]
  Activity: Active
